Drawing on patent publication US7563799B2, “Substituted pyrazolo[3,4-D]pyrimidines as p38 map kinase inhibitors” (Roche Palo Alto LLC, priority 2005, dated 2009), this text covers melting point and IC50 for 3 molecules.

As usually defined, the melting point is the temperature, or range, at which the solid turns liquid. As a reminder, the IC50 is the point on the concentration scale where inhibition reaches its midpoint.

Each structure is given as a SMILES string.

One data set deals with T1, p38 MAP kinase (Homo sapiens, UniProt Q16539).
T1 construct: made in house; host or cells: E. coli (co-expressed with SEK-1 and MEKK)
T1 sequence (Q16539 whole entry): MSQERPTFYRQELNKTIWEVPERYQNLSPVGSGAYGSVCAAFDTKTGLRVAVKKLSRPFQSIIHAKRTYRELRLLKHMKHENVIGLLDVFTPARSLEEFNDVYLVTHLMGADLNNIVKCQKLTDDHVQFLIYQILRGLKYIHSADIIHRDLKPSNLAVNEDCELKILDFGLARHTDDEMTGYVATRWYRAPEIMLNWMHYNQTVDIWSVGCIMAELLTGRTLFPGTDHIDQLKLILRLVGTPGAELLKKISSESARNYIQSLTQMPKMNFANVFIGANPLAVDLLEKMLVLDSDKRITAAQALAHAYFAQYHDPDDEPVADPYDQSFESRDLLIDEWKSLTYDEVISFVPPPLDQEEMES
The data set can be described thus: p38 (MAP) kinase in vitro assay (transfer of γ-33P from ATP to Myelin Basic Protein). In kind it is biochemical. The conditions noted are these: phosphorylated recombinant p38 MAP kinase, MBP substrate, γ-33P-ATP, 30° C. On the procedure:
This example illustrates a p38 (MAP) kinase in vitro assay useful for evaluating the compounds of the invention.
The p38 MAP kinase inhibitory activity of compounds of this invention in vitro was determined by measuring the transfer of the γ-phosphate from γ-^33P-ATP by p-38 kinase to Myelin Basic Protein (MBP), using a minor modification of the method described in Ahn, et al., J. Biol. Chem. 266:4220-4227 (1991).
The phosphorylated form of the recombinant p38 MAP kinase was co-expressed with SEK-1 and MEKK in E. Coli (see, Khokhlatchev, et al., J. Biol. Chem. 272:11057-11062 (1997)) and then purified by affinity chromatography using a Nickel column.
The phosphorylated p38 MAP kinase was diluted in kinase buffer (20 mM 3-(N-morpholino)propanesulfonic acid, pH 7.2, 25 mM β-glycerol phosphate, 5 mM ethylene glycol-bis(beta-aminoethyl ether)-N,N,N′,N′-tetraacetic acid, 1 mM sodium ortho-vanadate, 1 mM dithiothreitol, 40 mM magnesium chloride). Test compound dissolved in DMSO or only DMSO (control) was added and the samples were incubated for 10 min at 30° C. The kinase reaction was initiated by the addition of a substrate cocktail containing MBP and γ-^33P-ATP. […] The phosphorylated MBP was then separated from the residual γ-^33P-ATP using a phosphocellulose membrane (Millipore, Bedfrod, Mass.) and quantitated using a scintillation counter (Packard, Meriden, Conn.).

As for `CS(=O)(=O)c1ccc(Cl)c(-c2n[nH]c3nc(Oc4ccc(F)cc4F)ncc23)c1` [Compound 2, 3-(2-Chloro-5-methanesulfonyl-phenyl)-6-(2,4-difluoro-phenoxy)-1H-pyrazolo[3,4-d]pyrimidine], the melting point was 251.6 to 252.2 °C.
The same measure, in the same setting: under `Cc1ccc(S(C)(=O)=O)cc1-c1n[nH]c2nc(Oc3ccc(F)cc3F)ncc12` [Compound 5, 6-(2,4-Difluoro-phenoxy)-3-(5-methanesulfonyl-2-methyl-phenyl)-1H-pyrazolo[3,4-d]pyrimidine] stands 133 to 135 °C.
`CS(=O)(=O)c1ccc(Cl)c(-c2n[nH]c3nc(Oc4ccc(F)cc4F)nc(NC(CO)CO)c23)c1` [Compound 4, 2-[3-(2-Chloro-5-methanesulfonyl-phenyl)-6-(2,4-difluoro-phenoxy)-1H-pyrazolo[3,4-d]pyrimidin-4-ylamino]-propane-1,3-diol]: the 50% inhibitory concentration (IC50) at p38 MAP kinase is ~2 nM.
